Measured values from ChEMBL document CHEMBL1201862, “PubChem BioAssay data set” (2004).
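In this assay, cells in 96-well plates receive the compound at five concentrations for 48 hours. Endpoints are linearly interpolated between the surrounding concentrations. At the GI50, growth is halved.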 Active and inactive are the calls of the source. Cut-off read from the data, not from the text of the source: active = GI50 up to about 1.1 µM and inactive = higher.

Assays:
Test in all cases: NCI-60 cell line screen, 48 h
786-0 = tested on: 786-0
SR = tested on: SR
SK-OV-3 = tested on: SK-OV-3
BT-549 = tested on: BT-549
SK-MEL-28 = tested on: SK-MEL-28
SK-MEL-5 = tested on: SK-MEL-5
SNB-75 = tested on: SNB-75
HT-29 = tested on: HT-29
MOLT-4 = tested on: MOLT-4
LXFL 529 = tested on: LXFL 529
SF-295 = tested on: SF-295
U-251 = tested on: U-251
A549 = tested on: A549
Malme-3M = tested on: Malme-3M
CCRF-CEM = tested on: CCRF-CEM
KM12 = tested on: KM12
A498 = tested on: A498
UACC-62 = tested on: UACC-62
MCF7 = tested on: MCF7
SF-539 = tested on: SF-539

Compound: COc1ccc(OC(=O)N2C/C(=C\c3ccccc3)C(=O)/C(=C/c3ccccc3)C2)cc1
- GI50 (786-0): 2.96 µM (inactive)
- GI50 (SR): 0.222 µM (active)
- GI50 (SK-OV-3): 8.69 µM (inactive)
- GI50 (BT-549): 2.24 µM (inactive)
- GI50 (SK-MEL-28): 2.14 µM (inactive)
- GI50 (SK-MEL-5): 3.09 µM (inactive)
- GI50 (SNB-75): 7.83 µM (inactive)
- GI50 (HT-29): 1.27 µM (inactive)
- GI50 (MOLT-4): 1.49 µM (inactive)
- GI50 (LXFL 529): 2.64 µM (inactive)
- GI50 (SF-295): 2.99 µM (inactive)
- GI50 (U-251): 2.48 µM (inactive)
- GI50 (A549): 15.2 µM (inactive)
- GI50 (Malme-3M): 11.1 µM (inactive)
- GI50 (CCRF-CEM): 1.02 µM (active)
- GI50 (KM12): 1.43 µM (inactive)
- GI50 (A498): 2.33 µM (inactive)
- GI50 (UACC-62): 2.16 µM (inactive)
- GI50 (MCF7): 0.697 µM (active)
- GI50 (SF-539): 7.82 µM (inactive)

Compound: O=c1c2cc(Cl)ccc2n2nnc3ccc(NCCNCCO)c1c32
- GI50 (786-0): 0.741 µM (active)
- GI50 (SR): 0.641 µM (active)
- GI50 (SK-OV-3): 2.67 µM (inactive)
- GI50 (BT-549): 1.79 µM (inactive)
- GI50 (SK-MEL-28): 1.79 µM (inactive)
- GI50 (SK-MEL-5): 1.48 µM (inactive)
- GI50 (SNB-75): 0.0753 µM (active)
- GI50 (HT-29): 0.575 µM (active)
- GI50 (MOLT-4): 0.394 µM (active)
- GI50 (LXFL 529): 1.09 µM (active)
- GI50 (SF-295): 0.689 µM (active)
- GI50 (U-251): 0.853 µM (active)
- GI50 (A549): 0.719 µM (active)
- GI50 (Malme-3M): 2.09 µM (inactive)
- GI50 (CCRF-CEM): 0.56 µM (active)
- GI50 (KM12): 1.09 µM (active)
- GI50 (A498): 1.44 µM (inactive)
- GI50 (UACC-62): 2.31 µM (inactive)
- GI50 (MCF7): 2.76 µM (inactive)
- GI50 (SF-539): 1.8 µM (inactive)

Compound: O=c1[nH]cc(COCCCO)c(=O)[nH]1
- GI50 (786-0): > 100 µM (inactive)
- GI50 (SR): > 100 µM (inactive)
- GI50 (SK-OV-3): > 100 µM (inactive)
- GI50 (SK-MEL-28): > 100 µM (inactive)
- GI50 (SK-MEL-5): > 100 µM (inactive)
- GI50 (SNB-75): > 100 µM (inactive)
- GI50 (HT-29): > 100 µM (inactive)
- GI50 (MOLT-4): > 100 µM (inactive)
- GI50 (LXFL 529): > 100 µM (inactive)
- GI50 (SF-295): > 100 µM (inactive)
- GI50 (U-251): > 100 µM (inactive)
- GI50 (A549): > 100 µM (inactive)
- GI50 (Malme-3M): > 100 µM (inactive)
- GI50 (CCRF-CEM): > 100 µM (inactive)
- GI50 (KM12): > 100 µM (inactive)
- GI50 (A498): > 100 µM (inactive)
- GI50 (UACC-62): > 100 µM (inactive)
- GI50 (SF-539): > 100 µM (inactive)

Compound: COC(=O)C(C(=O)c1ccccc1)C(C(=O)C(=O)Nc1ccc(OC)cc1OC)C(=O)C(=O)c1ccc(C)cc1 (centres undefined)
- GI50 (786-0): > 100 µM (inactive)
- GI50 (SR): > 100 µM (inactive)
- GI50 (SK-OV-3): > 100 µM (inactive)
- GI50 (SK-MEL-28): > 100 µM (inactive)
- GI50 (SK-MEL-5): > 100 µM (inactive)
- GI50 (SNB-75): > 100 µM (inactive)
- GI50 (HT-29): > 100 µM (inactive)
- GI50 (MOLT-4): > 100 µM (inactive)
- GI50 (LXFL 529): > 100 µM (inactive)
- GI50 (SF-295): > 100 µM (inactive)
- GI50 (U-251): > 100 µM (inactive)
- GI50 (A549): > 100 µM (inactive)
- GI50 (Malme-3M): > 100 µM (inactive)
- GI50 (CCRF-CEM): > 100 µM (inactive)
- GI50 (KM12): > 100 µM (inactive)
- GI50 (A498): > 100 µM (inactive)
- GI50 (UACC-62): > 100 µM (inactive)
- GI50 (SF-539): > 100 µM (inactive)

Compound: COC(=O)c1nc(N)nc(O)c1-c1ccc(Cl)cc1
- GI50 (786-0): > 100 µM (inactive)
- GI50 (SR): > 70 µM (inactive)
- GI50 (SK-OV-3): > 100 µM (inactive)
- GI50 (SK-MEL-28): > 100 µM (inactive)
- GI50 (SK-MEL-5): > 100 µM (inactive)
- GI50 (SNB-75): > 100 µM (inactive)
- GI50 (HT-29): > 100 µM (inactive)
- GI50 (MOLT-4): > 100 µM (inactive)
- GI50 (LXFL 529): > 100 µM (inactive)
- GI50 (SF-295): > 100 µM (inactive)
- GI50 (U-251): > 100 µM (inactive)
- GI50 (A549): > 100 µM (inactive)
- GI50 (Malme-3M): > 100 µM (inactive)
- GI50 (CCRF-CEM): > 100 µM (inactive)
- GI50 (KM12): > 100 µM (inactive)
- GI50 (A498): > 100 µM (inactive)
- GI50 (UACC-62): > 100 µM (inactive)
- GI50 (SF-539): > 100 µM (inactive)
